# Measured values from patent US11680268B2, “Methods for improving CRISPR/Cas-mediated genome-editing” (Editas Medicine, Inc., priority 2014, dated 2023).
# Key:
# HBB locus [1] = test: Cas9 genome editing at the HBB locus, quantification of repair outcomes (reads); type: cell-based
# From the text: The data is a representation of at least four independent experiments with a minimum of 350 reads per condition.
# FIG. 12B is a graph depicting the percentage of modification observed in U2OS cells edited at the HBB locus with D10A Cas9 and 2 gRNAs with or without BRCA2 or Rad51. FF is a negative control.
# HBB locus [2] = test: Deletion length at the HBB locus after Cas9 variant cleavage; type: cell-based, human; conditions: U2OS cells, gRNAs 8 and 15, 6 days after electroporation
# Method: In this experiment, the deletions occurring in response to different end structures induced by different Cas9 variants were analyzed. […] Cells were collected 6 days after electroporation and genomic DNA was extracted. PCR amplification of the HBB locus was performed and subcloned into a Topo Blunt Vector. For each condition in each experiment (more the 4 independent samples), 98 colonies were analyses were sequenced with Sanger sequencing. Deletions detected by Sanger sequencing were scored for the exact number of nucleotides deleted.
# HBB locus [3] = test: Repair outcomes at the HBB locus after Cas9 variant cleavage, Sanger sequencing of Topo clones; type: cell-based, human; conditions: U2OS cells
# From the text: The different repair outcomes induced in response to DSBs introduced by different Cas9 variants were examined (FIG. 3). […] Several different DNA repair outcomes including, e.g., indel mutations resulting from non-homologous end-joining, alternative NHEJ, HDR homologous recombination (HR) using the closely related HBD gene as an endogenous template, or homology dependent repair using an exogenous donor sequence were characterized.
# For some conditions, 50 pmols of single stranded oligonucleotide donor (ss-ODN) was included. Cells were collected 6 days after electroporation and genomic DNA was extracted. PCR amplification of the HBB locus was performed and subcloned into a Topo Blunt Vector. For each condition in each experiment (more the 4 independent samples) 98 colonies were analyses were sequenced with Sanger sequencing and scored for either insertions, deletions, gene conversion or gene corrections.
Substance,repair pathway of the double strand breaks generated (HBB locus [1]),"engagement of the 5′ protruding end in HDR (HBB locus [1]; PAM facing in the opposite orientation, presence of a single-stranded oligonucleotide donor template nucleic acid)",size of deletions (HBB locus [2]),efficacy compared to wildtype Cas9 (HBB locus [3]; gRNAs HBB-8 and HBB-15),"predominant repair outcome of the induced DSBs (HBB locus [3]; gRNAs HBB-8 and HBB-15, no exogenous ss-ODN, 6 days after electroporation)","repair using the ss-ODN as a template (HBB locus [3]; gRNAs HBB-8 and HBB-15, with 50 pmols ss-ODN)"
"D10A Cas9 mutant: Cas9 nickase with D10A mutation; D10A inactivates RuvC, only HNH activity; leaves 5′ protruding ends",predominantly repaired by HR,more prone to be engaged in HDR,–,–,–,–
D10A: Cas9 nickase mutant (RuvC domain catalytic mutant); two gRNAs with PAMs outwards give 5′ protruding arms,–,–,mostly larger in nature,comparable levels of efficacy compared to wildtype Cas9,predominantly repaired by the gene conversion pathway,most efficient repair
